Data taken from patent publication US4447626A, “ML-236B Derivatives” (Sankyo Company Limited, priority 1981, dated 1984).

System: cholesterol biosynthesis
Assay: Inhibition of cholesterol biosynthesis (method of J. Biol. Chem. 234, 2835 (1959))
Type: biochemical
Conditions: method of Journal of Biological Chemistry, 234, 2835 (1959)
Text: The inhibitory activities of certain of the compounds of the invention, in terms of the concentration in μg/ml required to inhibit cholesterol biosynthesis by 50% [measured by the method described in the Journal of Biological Chemistry, 234, 2835 (1959)], are as follows: […]

| SMILES | concentration required to inhibit cholesterol biosynthesis by 50% [µg/mL] |
| --- | --- |
| CC[C@H](C)C(=O)O[C@H]1CC=CC2=CC(OC)[C@H](C)[C@H](CC[C@@H]3C[C@@H](O)CC(=O)O3)[C@H]21 (stereo partly drawn) [6-methoxy-IsoML-236B lactone] | 0.015 |
| CC[C@H](C)C(=O)O[C@H]1CCC=C2C=C[C@H](C)[C@H](CC[C@@H]3C[C@@H](O)CC(=O)O3)[C@H]21 [ML-236B lactone, reference compound] | 0.010 |
| CC[C@H](C)C(=O)O[C@H]1CC=CC2=CC(OC)[C@H](C)[C@H](CC[C@@H](O)C[C@@H](O)CC(=O)O)[C@H]21 (stereo partly drawn) [Sodium 6-methoxy-IsoML-236B carboxylate, sodium 6-methoxy-IsoML-236B carboxylate] | 0.0044 |
